Six molecules from US10414754B2, “Indolizine compounds, a process for their preparation and pharmaceutical compositions containing them” (LES LABORATOIRES SERVIER, priority 2013, dated 2019) can be followed below.

Counter-ions that a name gives are not always drawn.

Broadly, the IC50 is the concentration that gives 50% inhibition.

In assay [1] the test system is RS4;11 leukaemia tumour line. Nature of the assay: In vitro cytotoxicity (MTT) on RS4;11. The class given is cell-based. Conditions: RS4;11 cells, 48 hours exposure. On the procedure: The cytotoxicity studies were carried out on the RS4;11 leukaemia tumour line.
The cells are distributed onto microplates and exposed to the test compounds for 48 hours.
The cell viability is then quantified by a colorimetric assay, the Microculture Tetrazolium Assay (Cancer Res., 1987, 47, 939-942).

The next assay deals with T1, Bcl-2 protein (histag-Bcl-2, UniProtKB P10415) (Homo sapiens, UniProt P10415).
T1 construct: His tag
Nature of the assay: Inhibition of Bcl-2 by the fluorescence polarisation technique. The class given is binding. Conditions: for IC50: fluorescence polarisation, 2 hours incubation, read-out: IC50 (nM) Bcl-2 FP. In a few lines: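 Fluorescence polarisation competition: His-tagged human Bcl-2 (2.50×10^−8 M final) was mixed with fluorescein-labelled peptide (1.00×10^−8 M final) and increasing compound concentrations. Buffer was 10 mM Hepes, 150 mM NaCl, 0.05% Tween20, pH 7.4. Polarisation was read after 2 h.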

T1 sequence (P10415 whole entry): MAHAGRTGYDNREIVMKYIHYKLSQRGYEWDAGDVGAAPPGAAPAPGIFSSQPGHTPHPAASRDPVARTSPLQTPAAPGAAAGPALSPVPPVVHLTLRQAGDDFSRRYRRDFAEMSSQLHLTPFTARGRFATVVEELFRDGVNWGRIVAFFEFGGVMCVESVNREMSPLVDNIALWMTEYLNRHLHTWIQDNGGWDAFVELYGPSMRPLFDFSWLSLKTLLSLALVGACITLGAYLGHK

In the case of `CCCCN(C(=O)c1cc(-c2cc3c(cc2C(=O)N2Cc4ccccc4C[C@H]2C)OCO3)n2c1CNCC2)c1ccc(O)cc1` [Example 79, N-Butyl-N-(4-hydroxyphenyl)-6-(6-{[(3R)-3-methyl-3,4-dihydroiso-quinolin-2(1H)-yl]carbonyl}-1,3-benzodioxol-5-yl)-1,2,3,4-tetrahydropyrrolo[1,2-a]-pyrazine-8-carboxamide], the IC50 in assay [1] (Homo sapiens) was determined as 1010 nM; at Bcl-2 protein it was 99.1 nM.

For the molecule `CC(C)N(C(=O)c1cc(-c2cc3c(cc2C(=O)N2Cc4ccccc4C[C@H]2C)OCO3)n2c1CNCC2)c1ccc(O)cc1` [Example 80, N-(4-Hydroxyphenyl)-6-(6-{[(3R)-3-methyl-3,4-dihydroisoquinolin-2(1H)-yl]carbonyl}-1,3-benzodioxol-5-yl)-N-(propan-2-yl)-1,2,3,4-tetrahydro-pyrrolo[1,2-a]pyrazine-8-carboxamide], the IC50 in assay [1] (Homo sapiens) came to 1880 nM; on Bcl-2 protein, 299 nM.

On to `C[C@@H]1Cc2ccccc2CN1C(=O)c1cc2c(cc1-c1cc(C(=O)N(C)c3ccc(O)cc3)c3n1CCCC3)OCO2` [Example 81, N-(4-Hydroxyphenyl)-N-methyl-3-(6-{[(3R)-3-methyl-3,4-dihydroiso-quinolin-2(1H)-yl]carbonyl}-1,3-benzodioxol-5-yl)-5,6,7,8-tetrahydroindolizine-1-carboxamide], for which the values for the IC50 (in assay [1] (Homo sapiens); at Bcl-2 protein) were 778 nM and 12.1 nM, respectively.

`C[C@H]1Cc2ccccc2CN1C(=O)c1cc2c(cc1-c1cc(C(=O)N(C)c3ccc(O)cc3)c3n1CCCC3)OCO2` [Example 82, N-(4-Hydroxyphenyl)-N-methyl-3-(6-{[(3S)-3-methyl-3,4-dihydroiso-quinolin-2(1H)-yl]carbonyl}-1,3-benzodioxol-5-yl)-5,6,7,8-tetrahydroindolizine-1-carboxamide] displayed an IC50 in assay [1] of 1880 nM. Besides, the “percentage fluorescence polarisation inhibition (partial inhibitors), Bcl-2 FP” value at Bcl-2 protein (@ 10 μM test compound) is 42% @ 10 μM.

Consider `CN(C(=O)c1cc(-c2cc3c(cc2C(=O)N2CCc4ccccc4C2)OCO3)n2ccccc12)c1ccc(O)cc1` [Example 83, 3-[6-(3,4-Dihydroisoquinolin-2(1H)-ylcarbonyl)-1,3-benzodioxol-5-yl]-N-(4-hydroxyphenyl)-N-methylindolizine-1-carboxamide], for which the IC50 in assay [1] (Homo sapiens) was 1500 nM; on Bcl-2 protein, 35.8 nM.

Consider `Cc1cnn2cc(N(C(=O)c3cc(-c4cc5c(cc4C(=O)N4Cc6ccccc6C[C@H]4C)OCO5)n4ccccc34)c3ccc(O)cc3)cnc12` [Example 86, N-(4-Hydroxyphenyl)-3-[6-[(3R)-3-methyl-3,4-dihydro-1H-isoquinoline-2-carbonyl]-1,3-benzodioxol-5-yl]-N-(3-methylpyrazolo[1,5-a]pyrimidin-6-yl)-indolizine-1-carboxamide hydrochloride], for which the concentration for half-maximal inhibition (IC50) was 20.1 nM in assay [1] (Homo sapiens) and 5 nM at Bcl-2 protein.
